2 compounds from patent US20260174716A1, “CRYSTAL FORM OF ALKYL CARBOXYLIC ACID COMPOUND AND USE THEREOF” (CONSUN PHARMACEUTICAL (INNER MONGOLIA) CO. LTD, priority 2022, published 2026) can be followed below.

The target in one data set is T1, sGC (Homo sapiens, UniProt Q02153).
T1 construct: Minimum effective concentration required to stimulate cGMP production in LNCap cells; endogenous in cells; host or cells: LNCaP cells (no transfection described)
T1 sequence (Q02153 1-619): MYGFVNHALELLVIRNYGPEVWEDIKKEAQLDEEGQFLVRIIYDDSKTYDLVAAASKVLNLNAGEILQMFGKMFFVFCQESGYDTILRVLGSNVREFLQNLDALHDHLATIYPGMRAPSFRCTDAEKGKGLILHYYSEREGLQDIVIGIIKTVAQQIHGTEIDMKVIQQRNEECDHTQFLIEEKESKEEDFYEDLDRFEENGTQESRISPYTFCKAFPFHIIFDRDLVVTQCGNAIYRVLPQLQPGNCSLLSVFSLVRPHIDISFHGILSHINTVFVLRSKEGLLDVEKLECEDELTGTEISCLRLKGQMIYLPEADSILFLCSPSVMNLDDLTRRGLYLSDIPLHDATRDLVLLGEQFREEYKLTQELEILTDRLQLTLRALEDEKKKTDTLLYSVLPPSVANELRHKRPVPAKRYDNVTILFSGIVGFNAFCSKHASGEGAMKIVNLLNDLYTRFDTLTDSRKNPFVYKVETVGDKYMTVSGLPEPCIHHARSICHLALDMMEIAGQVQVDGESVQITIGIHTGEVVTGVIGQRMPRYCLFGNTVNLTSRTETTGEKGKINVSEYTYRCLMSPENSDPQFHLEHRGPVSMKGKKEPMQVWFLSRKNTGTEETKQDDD
T1 sequence (Q02108 1-690 partner): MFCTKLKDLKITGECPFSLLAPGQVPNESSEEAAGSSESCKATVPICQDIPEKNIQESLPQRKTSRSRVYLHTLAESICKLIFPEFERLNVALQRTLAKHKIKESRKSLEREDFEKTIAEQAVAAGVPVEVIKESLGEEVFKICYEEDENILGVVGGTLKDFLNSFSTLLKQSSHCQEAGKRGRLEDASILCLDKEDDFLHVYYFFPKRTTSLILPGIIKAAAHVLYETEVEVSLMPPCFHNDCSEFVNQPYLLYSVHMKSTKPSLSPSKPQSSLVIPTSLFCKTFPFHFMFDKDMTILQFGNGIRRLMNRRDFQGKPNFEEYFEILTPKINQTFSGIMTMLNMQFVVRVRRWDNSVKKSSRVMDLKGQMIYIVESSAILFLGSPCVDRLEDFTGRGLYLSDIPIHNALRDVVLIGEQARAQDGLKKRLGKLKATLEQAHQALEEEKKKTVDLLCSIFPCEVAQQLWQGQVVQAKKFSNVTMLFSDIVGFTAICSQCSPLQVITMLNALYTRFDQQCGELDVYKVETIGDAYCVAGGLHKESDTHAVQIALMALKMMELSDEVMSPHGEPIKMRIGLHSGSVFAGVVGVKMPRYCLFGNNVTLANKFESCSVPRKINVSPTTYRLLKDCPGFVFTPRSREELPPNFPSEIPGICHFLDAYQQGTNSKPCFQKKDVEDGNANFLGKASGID
The data set can be described thus: cGMP expression test based on LNCap cells (HTRF, with ODQ). Format: cell-based. The protocol: I. CGMP Expression Test Based on InCap Cells
10 g of BSA was dissolved in 100 mL of double-distilled water (ddH2O) to obtain 10% BSA.
1 mg of ODQ powder was weighed and dissolved in 534 μL of DMSO to prepare 10 mM ODQ solution. The solution was aliquoted and stored in a −20° C. refrigerator.
• a) 50 μL of cGMP-D2 (D2-labeled cyclic guanosine monophosphate) was added to 1 mL of lysis buffer and mixed thoroughly. • b) 50 μL of anti-cGMP cryptate (Eu^3+ cryptate-labeled anti-cyclic guanosine monophosphate antibody) was added to 1 mL of lysis buffer and mixed thoroughly.
• (1) The compound was diluted to a concentration of 10 mM using DMSO. • (2) A serial dilution of the compound was performed, resulting in 10 different concentration levels of each compound. […]
• (1) cGMP-D2 was transferred to a 384-well plate at 5 μL per well. […] Centrifugation was performed at 1500 rpm for 1 minute. • (2) Incubation was carried out at room temperature for 1 hour. • (3) The plates were read using envision at 665/615 wavelengths.
• (1) cGMP standard curve: A standard curve was generated using GraphPad Prism, based on the ratio of cGMP concentration to the 665/615 wavelength values. • (2) Conversion of HTRF (homogeneous time-resolved fluorescence) ratio (665/615) to cGMP concentration: In GraphPad Prism, the HTRF ratio (665/615) was copied to the ratio column of the cGMP standard curve. […]
(TR-FRET usually uses a lanthanide donor and a delayed reading to cut background.)

Data set [1] can be described thus: Solid stability test (XRPD detection of crystal form). In kind it is physicochemical. The text has this:
For samples placed under high temperature and high humidity conditions, the vial was sealed with aluminum foil punched with small holes to ensure that the samples were in full contact with the ambient air; for samples placed under strong light conditions, the vial was sealed with a threaded cap. The samples placed under different conditions were sampled and detected (XRPD) on day 5, day 10, and month 1, and the results were compared with the initial results on day 0.

Data set [2] can be described thus: In vitro hepatocyte metabolic stability, mouse. In kind it is in vitro ADME. The settings on record: hepatocytes (cryopreserved, suspension), 0.5×10^6 cells/mL. As for the experimental part: (§1) • 1. Experimental objective: The aim of the study was to assess the stability of the compounds in hepatocytes of different species. • 2. Experimental steps:
(§2) A variety of 96-well precipitation plates were prepared and labeled as T0, T15, T30, T60, T90, T0-MC, T90-MC, and blank matrix, respectively. Revival medium and incubation medium were taken in advance and pre-warmed in a 37° C. water bath. Hepatocytes of different species, stored in a liquid nitrogen tank, were taken and immediately immersed in a 37° C. water bath for approximately 90 seconds. Once partially thawed, cells were transferred to centrifuge tubes containing 40 mL of revival medium, and gently inverted to resuspend the cells in the revival medium. At room temperature, cells were centrifuged at 100×g for 5 minutes. The supernatant was discarded, and the hepatocytes were resuspended in an appropriate volume of incubation medium. Viability was calculated using trypan blue staining. 198 μL of hepatocyte suspension (0.51×10^6 cells/mL) was added to pre-warmed incubation plates. For the control group, 198 μL of hepatocyte-free incubation medium was added to T0-MC and […] plates. All plates were pre-incubated for 10 minutes in a 37° C. incubator. […] All samples were mixed well and analyzed using LC/MS/MS methods.

Data set [3] can be described thus: In vitro hepatocyte metabolic stability, rat. Format: in vitro ADME. Conditions: hepatocytes (cryopreserved, suspension), 0.5×10^6 cells/mL. As for the experimental part:
as §1, §2

The nature of data set [4]: In vitro hepatocyte metabolic stability, human. Format: in vitro ADME. Conditions: hepatocytes (cryopreserved, suspension), 0.5×10^6 cells/mL. The protocol: as §1, §2

A word on the EC50: it is the concentration that produces a half-maximal response. Regarding `COC12CC([C@H](CC(=O)O)c3ccc(Cl)c(NC(=O)[C@H](c4ccc(Cl)cc4)[C@@H](C)C(F)(F)F)c3)(C1)C2`, a half-maximal response on sGC (cGMP production in LNCap cells) (EC50) required 21.2 nM. The compound further registered an MEC on sGC (minimum effective concentration to stimulate cGMP production in LNCap cells (greater than three times the baseline value)) of 6.93 nM. In addition, the Crystal form result in data set [1] (40° C./75% RH (open), Day 5) was “Crystal form A”; in data set [1] (40° C./75% RH (open), Day 10) it was “Crystal form A”; in data set [1] (40° C./75% RH (open), Month 1), “Crystal form A”; in data set [1] (60° C./75% RH (open), Day 5), “Crystal form A”; in data set [1] (60° C./75% RH (open), Day 10), “Crystal form A”; in data set [1] (60° C./75% RH (open), Month 1), “Crystal form A”. For the same compound, the Crystal form entry in data set [1] (Day 0 (initial)) is “Crystal form A”; in data set [1] (High humidity (25° C./relative humidity: 92.5%, open), Day 5), “Crystal form A”; in data set [1] (High humidity (25° C./relative humidity: 92.5%, open), Day 10), “Crystal form A”; in data set [1] (High humidity (25° C./relative humidity: 92.5%, open), Month 1), “Crystal form A”; in data set [1] (High temperature (60° C., open), Day 5), “Crystal form A”; in data set [1] (High temperature (60° C., open), Day 10), “Crystal form A”. For the same compound, the Crystal form entry in data set [1] (High temperature (60° C., open), Month 1) is on record as “Crystal form A”; in data set [1] (Strong light (5000 lx, sealed), Day 5) it was “Crystal form A”; in data set [1] (Strong light (5000 lx, sealed), Day 10) it was “Crystal form A”; in data set [1] (Strong light (5000 lx, sealed), Month 1), “Crystal form A”.

The half-life is how long it takes for the measured level to halve. As to `COC12CC([C@H](CC(=O)O)c3ccc(Cl)c(NC(=O)[C@H](c4ccc(Cl)cc4)[C@@H](C)C(F)(F)F)c3)(C1)C2` [Compound of formula (I)], the half-life at 1 μM in data set [2] was found to be 1.42 h; in data set [3], 1.3 h; in data set [4] it was 2.58 h. Further, the CLint scaled at 1 μM in data set [2] (read-out: CLint (liver)) stood at 193 mL/min/kg; in data set [3] (read-out: CLint (liver)), 82.9 mL/min/kg; in data set [4] (read-out: CLint (liver)) it was 24.9 mL/min/kg.
